US12239643B2, “Therapeutic agent for inflammatory diseases, autoimmune diseases, fibrotic diseases, and cancer diseases” (MEIJI SEIKA PHARMA CO., LTD., priority 2018, dated 2025)

System: PDE4
Assay: Evaluation of PDE4 inhibitory activity, scintillation proximity assay
Assay type: biochemical
Settings: scintillation proximity assay; class symbols of Evaluation 1; read-out: PDE4 Inhibitory Activity (concentration for the inhibition rate of 50%, IC50), Evaluation 1
Summary of the method: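 IC50 was derived from inhibition curves, referenced to an enzyme-free blank and a DMSO-only control. Compound, PDE4 preparation and tritiated cAMP reacted 120 min at RT in Tris-HCl buffer (pH 7.4) with MgCl2, EGTA and BSA; YSi-SPA beads with ZnSO4 bound product before scintillation counting.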

Row | SMILES | IC50 [nM]
1 | O=C(c1cc(-c2nccs2)c2oc(N3CC4CCC(C3)N4)nc2c1)N1CCC1 [Example 97, (2-(3,8-Diazabicyclo[3.2.1]octan-3-yl)-7-(thiazol-2-yl)benzo[d]oxazol-5-yl)(azetidin-1-yl)methanone] | < 100
2 | O=C(NCc1ccccc1)c1cc(-c2nccs2)c2oc(N3CC4CCC(C3)N4)nc2c1 [Example 98, N-benzyl-2-(3,8-diazabicyclo[3.2.1]octan-3-yl)-7-(thiazol-2-yl)benzo[d]oxazole-5-carboxamide] | < 100
3 | NC(=O)c1cc(-c2nccs2)c2oc(N3CC4CCC(C3)N4)nc2c1 [Example 99, 2-(3,8-Diazabicyclo[3.2.1]octan-3-yl)-7-(thiazol-2-yl)benzo[d]oxazole-5-carboxamide] | < 100
4 | CNC(=O)c1cc(-c2nccs2)c2oc(N3CC4CCC(C3)N4)nc2c1 [Example 100, 2-(3,8-Diazabicyclo[3.2.1]octan-3-yl)-N-methyl-7-(thiazol-2-yl)benzo[d]oxazole-5-carboxamide] | < 100
5 | CC(=O)N(C)c1cc(-c2nccs2)c2oc(N3CC4CCC(C3)N4)nc2c1 [Example 101, N-(2-(3,8-diazabicyclo[3.2.1]octan-3-yl)-7-(thiazol-2-yl)benzo[d]oxazol-5-yl)-N-methylacetamide] | < 100
6 | COC(C)(c1cc(-c2nccs2)c2oc(N3CC4CCC(C3)N4)nc2c1)C(F)(F)F (stereo not drawn) [Example 102, 2-(3,8-Diazabicyclo[3.2.1]octan-3-yl)-7-(thiazol-2-yl)-5-(1,1,1-trifluoro-2-methoxypropan-2-yl)benzo[d]oxazole] | < 100
7 | COC(C)(c1cc(-c2nccs2)c2oc(N3CC4CC(C3)N4)nc2c1)C(F)(F)F (stereo not drawn) [Example 103, 2-(3,6-Diazabicyclo[3.1.1]heptan-3-yl)-7-(thiazol-2-yl)-5-(1,1,1-trifluoro-2-methoxypropan-2-yl)benzo[d]oxazole] | < 100
8 | COC(c1cc(-c2nccs2)c2oc(N3CC4CCC(C3)N4)nc2c1)C(F)F (stereo not drawn) [Example 105, 2-(3,8-Diazabicyclo[3.2.1]octan-3-yl)-5-(2,2-difluoro-1-methoxyethyl)-7-(thiazol-2-yl)benzo[d]oxazole] | < 100
9 | CC(O)c1cc(-c2nccs2)c2oc(N3CC4CCC(C3)N4)nc2c1 (stereo not drawn) [Example 106, 1-(2-(3,8-Diazabicyclo[3.2.1]octan-3-yl)-7-(thiazol-2-yl)benzo[d]oxazol-5-yl)ethan-1-ol] | < 100
10 | CC(O)c1cc(-c2nccs2)c2oc(N3CC4CC(C3)N4)nc2c1 (stereo not drawn) [Example 107, 1-(2-(3,6-Diazabicyclo[3.1.1]heptan-3-yl)-7-(thiazol-2-yl)benzo[d]oxazol-5-yl)ethan-1-ol] | 100 to 1000
11 | CC(=O)c1cc(-c2nccs2)c2oc(N3CC4CCC(C3)N4)nc2c1 [Example 108, 1-(2-(3,8-Diazabicyclo[3.2.1]octan-3-yl)-7-(thiazol-2-yl)benzo[d]oxazol-5-yl)ethan-1-one] | < 100
12 | CC(=O)c1cc(-c2nccs2)c2oc(N3CC4CC(C3)N4)nc2c1 [Example 109, 1-(2-(3,6-Diazabicyclo[3.1.1]heptan-3-yl)-7-(thiazol-2-yl)benzo[d]oxazol-5-yl)ethan-1-one] | < 100
13 | COC(C)c1cc(-c2nccs2)c2oc(N3CC4CCC(C3)N4)nc2c1 (stereo not drawn) [Example 110, 2-(3,8-Diazabicyclo[3.2.1]octan-3-yl)-5-(1-methoxyethyl)-7-(thiazol-2-yl)benzo[d]oxazole] | < 100
14 | COC(C)c1cc(-c2nccs2)c2oc(N3CC4CC(C3)N4)nc2c1 (stereo not drawn) [Example 111, 2-(3,6-Diazabicyclo[3.1.1]heptan-3-yl)-5-(1-methoxyethyl)-7-(thiazol-2-yl)benzo[d]oxazole] | < 100
15 | CCOC(=O)c1ccc(-c2nccs2)c2oc(N3CC4CCC(C3)N4)nc12 [Example 112, Ethyl 2-(3,8-diazabicyclo[3.2.1]octan-3-yl)-7-(thiazol-2-yl)benzo[d]oxazole-4-carboxylate] | < 100
16 | CCOC(=O)c1ccc(-c2nccs2)c2oc(N3CC4CC(C3)N4)nc12 [Example 113, ethyl 2-(3,6-diazabicyclo[3.1.1]heptan-3-yl)-7-(thiazol-2-yl)benzo[d]oxazole-4-carboxylate] | < 100
17 | CCOC(=O)c1ccc(-c2nccs2)c2oc(N3CC4CCCC(C3)N4)nc12 [Example 114, Ethyl 2-(3,9-diazabicyclo[3.3.1]nonan-3-yl)-7-(thiazol-2-yl)benzo[d]oxazole-4-carboxylate] | < 100
18 | CN(C)C(=O)c1ccc(-c2nccs2)c2oc(N3CC4CCC(C3)N4)nc12 [Example 115, 2-(3,8-Diazabicyclo[3.2.1]octan-3-yl)-N,N-dimethyl-7-(thiazol-2-yl)benzo[d]oxazole-4-carboxamide] | < 100
19 | O=C(c1ccc(-c2nccs2)c2oc(N3CC4CCC(C3)N4)nc12)N1CCOCC1 [Example 116, (2-(3,8-Diazabicyclo[3.2.1]octan-3-yl)-7-(thiazol-2-yl)benzo[d]oxazol-4-yl) (morpholino)methanone] | < 100
20 | O=C(c1ccc(-c2nccs2)c2oc(N3CC4CCC(C3)N4)nc12)N1CCCCC1 [Example 117, (2-(3,8-Diazabicyclo[3.2.1]octan-3-yl)-7-(thiazol-2-yl)benzo[d]oxazol-4-yl)(piperidin-1-yl)methanone] | < 100
21 | OC(c1ccc(-c2nccs2)c2oc(N3CC4CC(C3)N4)nc12)C(F)(F)F (stereo not drawn) [Example 121, 1-(2-(3,6-Diazabicyclo[3.1.1]heptan-3-yl)-7-(thiazol-2-yl)benzo[d]oxazol-4-yl)-2,2,2-trifluoroethan-1-ol] | < 100
22 | COC(c1ccc(-c2nccs2)c2oc(N3CC4CC(C3)N4)nc12)C(F)(F)F (stereo not drawn) [Example 122, 2-(3,6-Diazabicyclo[3.1.1]heptan-3-yl)-7-(thiazol-2-yl)-4-(2,2,2-trifluoro-1-methoxyethyl)benzo[d]oxazole] | < 100
23 | COC(c1ccc(-c2nccs2)c2oc(N3CC4CC(C3)N4)nc12)C(F)(F)F (stereo not drawn) [Example 123, 2-(3,6-Diazabicyclo[3.1.1]heptan-3-yl)-7-(thiazol-2-yl)-4-(2,2,2-trifluoro-1-methoxyethyl)benzo[d]oxazole] | < 100
24 | CC(O)c1ccc(-c2nccs2)c2oc(N3CC4CCC(C3)N4)nc12 (stereo not drawn) [Example 124, 1-(2-(3,8-Diazabicyclo[3.2.1]octan-3-yl)-7-(thiazol-2-yl)benzo[d]oxazol-4-yl)ethan-1-ol] | < 100
25 | OC(c1ccc(-c2nccs2)c2oc(N3CC4CC(C3)N4)nc12)C(F)F (stereo not drawn) [Example 125, 1-(2-(3,6-Diazabicyclo[3.1.1]heptan-3-yl)-7-(thiazol-2-yl)benzo[d]oxazol-4-yl)-2,2-difluoroethan-1-ol] | < 100
26 | CC(O)(c1ccc(-c2nccs2)c2oc(N3CC4CC(C3)N4)nc12)C(F)F (stereo not drawn) [Example 126, 2-(2-(3,6-Diazabicyclo[3.1.1]heptan-3-yl)-7-(thiazol-2-yl)benzo[d]oxazol-4-yl)-1,1-difluoropropan-2-ol] | < 100
27 | CC(C)(O)COC(c1ccc(-c2nccs2)c2oc(N3CC4CC(C3)N4)nc12)C(F)F (stereo not drawn) [Example 127, 1-(1-(2-(3,6-Diazabicyclo[3.1.1]heptan-3-yl)-7-(thiazol-2-yl)benzo[d]oxazol-4-yl)-2,2-difluoroethoxy)-2-methylpropan-2-ol] | < 100
